Laboratory results published in US9988420B2, “Cytotoxic peptides and conjugates thereof” (priority 2013, dated 2018).
Starred links: 1 amine or outer side, 2 acyl side, 3 side chain; linkers in the order of their positions; H or OH if unused. Non-standard residues stand in square brackets, D forms with d. Residues, ends and D or L forms follow the SMILES beside them. *: point of attachment. Dolaproine = CO[C@@H]([C@@H]1CCCN1)[C@@H](C)C(=O)O; X1 = O=C([C@@H]1[C@H]2CC[C@H](C2)N1[*:1])[*:2]; Dil = CC[C@H](C)[C@H](NC)[C@@H](CC(=O)O)OC; X2 = CN1[C@@H]2CC[C@@H](C2)[C@H]1C(=O)*; Phe(ol) = N[C@H](CO)Cc1ccccc1

Columns and labels:
Experiment in all cases: In vitro cell killing assay of payloads (cell proliferation, Cell-Titer-Glo)
Type in all cases: cell-based
[1] = system: NCI-N87 cells; conditions: Homo sapiens, 120 h, Cell-Titer-Glo after five days
Description: (§1) For evaluation of the cell killing potency of the cytotoxic peptides of Formula (I) in vitro, cell proliferation assays were performed in parallel with 8 cell lines: MDA-MB231 clone 16, clone 40, JimT1, HCC1954, H526, KU812, CMK11-5 cells and Jurkat cells. In addition, in vitro, cell proliferation assays were performed using 3 other cell lines: A375, SKBR3 and NCI-N87. All the cell lines are described in more detail in Example 106 and were also used to assess the in vitro potency of immunoconjugates of the invention. The cell proliferation assays were conducted with Cell-Titer-Glo™ (Promega) five days after cells were incubated with various concentrations of ADCs (Riss et al., (2004) Assay Drug Dev Technol. 2:51-62).

[2] = system: SKBR3 cells; conditions: Homo sapiens, SK-BR-3, 120 h, Cell-Titer-Glo after five days
Description: as §1

[3] = system: A375 cells; conditions: Homo sapiens, A-375, 120 h, Cell-Titer-Glo after five days
Description: as §1

[4] = system: H526 cells; conditions: Homo sapiens, 120 h; NCI-H526 cells; Cell-Titer-Glo after five days; Table 2b; read-out: In vitro cell killing (IC50 (nM)) NCI-H526
[5] = system: JimT1 cells; conditions: Homo sapiens, JIMT-1, 120 h; JimT1 cells; Cell-Titer-Glo after five days; Table 2b; read-out: In vitro cell killing (IC50 (nM)) JimT1
[6] = system: HCC1954 cells; conditions: Homo sapiens, 120 h; HCC1954 cells; Cell-Titer-Glo after five days; Table 2b; read-out: In vitro cell killing (IC50 (nM)) HCC1954

Row | SMILES | IC50 [1] [nM] | IC50 [2] [nM] | IC50 [3] [nM] | IC50 [4] [nM] | IC50 [5] [nM] | IC50 [6] [nM]
1 | CC[C@H](C)[C@@H]([C@@H](CC(=O)N1CCC[C@H]1[C@H](OC)[C@@H](C)C(=O)N[C@H](CO)Cc1ccccc1)OC)N(C)C(=O)[C@@H](NC(=O)[C@H]1N[C@@H]2CC[C@H]1C2)C(C)C [Compound 50, (1R,3S,4S)-N-((S)-1-(((3R,4S,5S)-1-((S)-2-((1R,2R)-3-(((S)-1-Hydroxy-3-phenylpropan-2-yl)amino)-1-methoxy-2-methyl-3-oxopropyl)pyrrolidin-1-yl)-3-methoxy-5-methyl-1-oxoheptan-4-yl)(methyl)amino)-3-methyl-1-oxobutan-2-yl)-2-azabicyclo[2.2.1]heptane-3-carboxamide] (H-[X1]V[Dil][Dolaproine][Phe(ol)]) | 10.2 | 5.66 | 5.16 | 52.4 | 57.6 | –
2 | CC[C@H](C)[C@@H]([C@@H](CC(=O)N1CCC[C@H]1[C@H](OC)[C@@H](C)C(=O)N[C@H](CO)Cc1ccccc1)OC)N(C)C(=O)[C@@H](NC(=O)[C@@H]1[C@H]2CC[C@H](C2)N1C)C(C)C [Compound 51, (1R,3S,4S)-N-((S)-1-(((3R,4S,5S)-1-((S)-2-((1R,2R)-3-(((S)-1-Hydroxy-3-phenylpropan-2-yl)amino)-1-methoxy-2-methyl-3-oxopropyl)pyrrolidin-1-yl)-3-methoxy-5-methyl-1-oxoheptan-4-yl)(methyl)amino)-3-methyl-1-oxobutan-2-yl)-2-methyl-2-azabicyclo[2.2.1]heptane-3-carboxamide] (X2-V[Dil][Dolaproine][Phe(ol)]) | 0.053 | 0.035 | 0.154 | 0.184 | 0.081 | 0.028
3 | CC[C@H](C)[C@@H]([C@@H](CC(=O)N1CCC[C@H]1[C@H](OC)[C@@H](C)C(=O)N[C@H](CO)Cc1cccc(N)c1)OC)N(C)C(=O)[C@@H](NC(=O)[C@@H]1[C@H]2CC[C@H](C2)N1C)C(C)C [Compound 52, (1R,3S,4S)-N-((S)-1-(((3R,4S,5S)-1-((S)-2-((1R,2R)-3-(((S)-1-(3-Aminophenyl)-3-hydroxypropan-2-yl)amino)-1-methoxy-2-methyl-3-oxopropyl)pyrrolidin-1-yl)-3-methoxy-5-methyl-1-oxoheptan-4-yl)(methyl)amino)-3-methyl-1-oxobutan-2-yl)-2-methyl-2-azabicyclo[2.2.1]heptane-3-carboxamide] | 0.068 | 0.046 | 0.923 | – | – | 0.019
4 | CC[C@H](C)[C@@H]([C@@H](CC(=O)N1CCC[C@H]1[C@H](OC)[C@@H](C)C(=O)N[C@@H](Cc1ccccc1)CS(N)(=O)=O)OC)N(C)C(=O)[C@@H](NC(=O)[C@@H]1[C@H]2CC[C@H](C2)N1C)C(C)C [Compound 55, (1R,3S,4S)-N-((S)-1-(((3R,4S,5S)-3-methoxy-1-((S)-2-((1R,2R)-1-methoxy-2-methyl-3-oxo-3-(((S)-1-phenyl-3-sulfamoylpropan-2-yl)amino)propyl)pyrrolidin-1-yl)-5-methyl-1-oxoheptan-4-yl)(methyl)amino)-3-methyl-1-oxobutan-2-yl)-2-methyl-2-azabicyclo[2.2.1]heptane-3-carboxamide] | 0.643 | 0.21 | 2.75 | 0.364 | 0.751 | 0.124
5 | CC[C@H](C)[C@@H]([C@@H](CC(=O)N1CCC[C@H]1[C@H](OC)[C@@H](C)C(=O)N[C@@H](Cc1ccccc1)c1nc(-c2ccccc2)c[nH]1)OC)N(C)C(=O)[C@@H](NC(=O)[C@H]1N[C@@H]2CC[C@H]1C2)C(C)C [Compound 57, (1R,3S,4S)-N-((S)-1-(((3R,4S,5S)-3-Methoxy-1-((S)-2-((1R,2R)-1-methoxy-2-methyl-3-oxo-3-(((S)-2-phenyl-1-(5-phenyl-1H-imidazol-2-yl)ethyl)amino)propyl)pyrrolidin-1-yl)-5-methyl-1-oxoheptan-4-yl)(methyl)amino)-3-methyl-1-oxobutan-2-yl)-2-azabicyclo[2.2.1]heptane-3-carboxamide] | 0.019 | 0.034 | 0.049 | 1.11 | 0.307 | –
6 | CC[C@H](C)[C@@H]([C@@H](CC(=O)N1CCC[C@H]1[C@H](OC)[C@@H](C)C(=O)N[C@H](COC)Cc1ccccc1)OC)N(C)C(=O)[C@@H](NC(=O)[C@H]1N[C@@H]2CC[C@H]1C2)C(C)C [Compound 58, (1R,3S,4S)-N-((S)-1-(((3R,4S,5S)-3-Methoxy-1-((S)-2-((1R,2R)-1-methoxy-3-(((S)-1-methoxy-3-phenylpropan-2-yl)amino)-2-methyl-3-oxopropyl)pyrrolidin-1-yl)-5-methyl-1-oxoheptan-4-yl)(methyl)amino)-3-methyl-1-oxobutan-2-yl)-2-azabicyclo[2.2.1]heptane-3-carboxamide] | 0.31 | 0.307 | 0.304 | 4.08 | 2.15 | –
7 | CC[C@H](C)[C@@H]([C@@H](CC(=O)N1CCC[C@H]1[C@H](OC)[C@@H](C)C(=O)N[C@@H](Cc1ccccc1)c1cc[nH]n1)OC)N(C)C(=O)[C@@H](NC(=O)[C@H]1N[C@@H]2CC[C@H]1C2)C(C)C [Compound 59, (1R,3S,4S)-N-((S)-1-(((3R,4S,5S)-3-Methoxy-1-((S)-2-((1R,2R)-1-methoxy-2-methyl-3-oxo-3-(((S)-2-phenyl-1-(1H-pyrazol-3-yl)ethyl)amino)propyl)pyrrolidin-1-yl)-5-methyl-1-oxoheptan-4-yl)(methyl)amino)-3-methyl-1-oxobutan-2-yl)-2-azabicyclo[2.2.1]heptane-3-carboxamide] | 4.78 | 3.12 | 3.55 | 19.5 | 37.5 | –
8 | CC[C@H](C)[C@@H]([C@@H](CC(=O)N1CCC[C@H]1[C@H](OC)[C@@H](C)C(=O)N[C@@H](Cc1ccccc1)c1ncccn1)OC)N(C)C(=O)[C@@H](NC(=O)[C@H]1N[C@@H]2CC[C@H]1C2)C(C)C [Compound 60, (1R,3S,4S)-N-((S)-1-(((3R,4S,5S)-3-Methoxy-1-((S)-2-((1R,2R)-1-methoxy-2-methyl-3-oxo-3-(((S)-2-phenyl-1-(pyrimidin-2-yl)ethyl)amino)propyl)pyrrolidin-1-yl)-5-methyl-1-oxoheptan-4-yl)(methyl)amino)-3-methyl-1-oxobutan-2-yl)-2-azabicyclo[2.2.1]heptane-3-carboxamide] | 0.801 | 0.591 | 0.45 | 8.35 | 4.82 | –
9 | CC[C@H](C)[C@@H]([C@@H](CC(=O)N1CCC[C@H]1[C@H](OC)[C@@H](C)C(=O)N[C@H](Cc1ccccc1)c1ncccn1)OC)N(C)C(=O)[C@@H](NC(=O)[C@H]1N[C@@H]2CC[C@H]1C2)C(C)C [Compound 61, (1R,3S,4S)-N-((S)-1-(((3R,4S,5S)-3-methoxy-1-((S)-2-((1R,2R)-1-methoxy-2-methyl-3-oxo-3-(((R)-2-phenyl-1-(pyrimidin-2-yl)ethyl)amino)propyl)pyrrolidin-1-yl)-5-methyl-1-oxoheptan-4-yl)(methyl)amino)-3-methyl-1-oxobutan-2-yl)-2-azabicyclo[2.2.1]heptane-3-carboxamide] | 13.5 | 6.1 | 5.43 | 60.6 | 66 | –
10 | CC[C@H](C)[C@@H]([C@@H](CC(=O)N1CCC[C@H]1[C@H](OC)[C@@H](C)C(=O)N[C@H](COC)Cc1cccc(N)c1)OC)N(C)C(=O)[C@@H](NC(=O)[C@@H]1[C@H]2CC[C@H](C2)N1C)C(C)C [Compound 72, (1R,3S,4S)-N-((S)-1-(((3R,4S,5S)-1-((S)-2-((1R,2R)-3-(((S)-1-(3-Aminophenyl)-3-methoxypropan-2-yl)amino)-1-methoxy-2-methyl-3-oxopropyl)pyrrolidin-1-yl)-3-methoxy-5-methyl-1-oxoheptan-4-yl)(methyl)amino)-3-methyl-1-oxobutan-2-yl)-2-methyl-2-azabicyclo[2.2.1]heptane-3-carboxamide] | – | 0.085 | 0.189 | 0.287 | 0.224 | 0.079
11 | CC[C@H](C)[C@@H]([C@@H](CC(=O)N1CCC[C@H]1[C@H](OC)[C@@H](C)C(=O)N[C@H](C)[C@@H](O)c1ccccc1)OC)N(C)C(=O)[C@@H](NC(=O)[C@@H]1[C@H]2CC[C@H](C2)N1C)C(C)C [Compound 74, (1R,3S,4S)-N-((S)-1-(((3R,4S,5S)-1-((S)-2-((1R,2R)-3-(((1S,2R)-1-Hydroxy-1-phenylpropan-2-yl)amino)-1-methoxy-2-methyl-3-oxopropyl)pyrrolidin-1-yl)-3-methoxy-5-methyl-1-oxoheptan-4-yl)(methyl)amino)-3-methyl-1-oxobutan-2-yl)-2-methyl-2-azabicyclo[2.2.1]heptane-3-carboxamide] | – | 0.351 | 0.571 | 0.962 | 0.587 | 0.27
